Measured values: patent publication US20240418723A1, “SEQUENTIAL TREATMENTS AND BIOMARKERS TO REVERSE RESISTANCE TO KINASE INHIBITORS” (Queen Mary University of London, priority 2021, published 2024)

Columns and labels:
[1] = results of clinical trials; unselected AML patient populations; cited from earlier work
acute myeloid leukemia = conditions: Smitheman et al. (2019); cited from earlier work
P31/Fuj cells = test: Subcellular (cytosolic and nuclear/organelle) proteomics of LSD1i-treated P31/Fuj cells; assay type: cell-based
Procedure: Isolation of nuclear/organelle and cytosolic fractions for proteomic analysis was carried out as described below.
The isolation of cytosolic and nuclear/organelle proteins was performed as follows. Cells (10×10^6 cells per replicate) were resuspended in 1 mL hypotonic lysis buffer (containing 10 mM Tris-HCl pH 8.0, 1 mM KCl, 1.5 mM MgCl2, 1 mM DTT, 1 mM Na3VO4 and 1 mM NaF) and incubated at 4° C. for 30 minutes on a rotator. Nuclei/organelles were then pelleted (10,000×g, 10 min, 4° C.), after which the supernatant (cytosolic fraction) was transferred to fresh tubes. The nuclear/organelle fraction was further processed for proteomic analysis by adding 8M urea buffer as indicated above.
Proteins in the supernatant were isolated by methanol/chloroform precipitation as follows. Methanol was added to the protein solution (at 4×initial volume), followed by chloroform (1×initial volume) and ddH2O (3×initial volume), vortexing after each addition. Samples were centrifuged for 2 min, 12,000×g, 4° C., and the top aqueous layer was removed. Additional methanol was added (4×initial volume) and samples vortexed. Samples were centrifuged for 3 min, 12,000×g, 4° C., and the supernatant removed. Protein pellets were dried briefly at RT, then resuspended in 8M urea buffer. Homogenisation, cysteine alkylation and tryptic digestion of the nuclear and cytosolic fractions were carried out as described above. Desalting was performed through C18 spin columns (Glygen Corporation, Cat. TT2C18) following the manufacturer's indications. Briefly, columns were equilibrated twice with 200 μL 70% ACN, and washed twice with 200 μL 1% ACN. Peptide samples were loaded onto the columns, then washed twice with 200 μL 1% ACN, with spinning. […] Columns were spun for 2 min at 1,500×g, 4° C. each time they were loaded.

primary AML cells = test: Ex-vivo sequential treatment of primary AML blasts co-cultured on MS-5 stromal feeder layer, Guava ViaCount, CDI; assay type: cell-based, human
Procedure: We then examined whether, besides cell lines, LSD1i could also sensitise primary AML to kinase inhibitor treatment. We obtained CDI values from 17 AML blasts samples (6 normal, 5 complex and 6 MLL karyotypes) treated for 5 days with LSD1i followed by 3 days with either MEKi, PKC/FLT3i or DMSO control (FIGS. 2, H and I). Primary AML cells were cultured and treated in the presence of a feeder layer of bone marrow stromal cells, which, under control conditions, kept cells viable and proliferating throughout the course of the experiment.
Umbilical cord bloods were purchased from Anthony Nolan. Mononuclear cells (MNCs) were isolated by Ficoll prior red blood cells (RBC) lysis buffer (BioLegend, catalog #420301). Cells were then stained with CD34 immunomagnetic positive selection kit (EasySep™ Human CD34 Positive Selection Kit II, StemCell technologies, catalog #17856, according to manufacturer instructions). Purity of CD34^+ cells isolated from MNCs was assessed by flow cytometry prior to long term storage in liquid nitrogen. For AML samples, patients gave informed consent for the storage and use of their blood cells for research purposes. Experiments were performed in accordance with the Local Research Ethics Committee, as previously described. Mononuclear cells from peripheral blood or bone marrow biopsies were isolated in the BCI tissue bank facility and stored in liquid nitrogen.
Cell vials were thawed in 37° C. water bath and contents transferred to 15 mL Falcon tubes containing 4 mL of pre-warmed FBS with 40 ng/mL DNase (Sigma Aldrich D4513-1VL). Suspension was centrifuged at 300×g for 8 minutes, then supernatant was removed and cells resuspended in MyeloCult H5100 medium (Stemcell Technologies #05150) containing 1% P/S and supplemented with human IL-3 (Peprotech #200-03), human G-CSF (Peprotech #300-23) and human TPO (#300-18), each to a final concentration of 20 ng/mL. […]

[2] = 0.5 μM LSD1i 5 days versus control (FIG. 21A)
[3] = 0.5 μM LSD1i 5 days versus control (FIG. 21B)
[4] = LSD1i, pathway analysis of proteomics data (FIG. 21 C, D)

O=C(O)c1ccc(CN2CCC(CN[C@@H]3C[C@H]3c3ccccc3)CC2)cc1 [GSK2879552]
clinical tolerability as single agent [1]: has side effects | differentiation and cytotoxic response in combination with all-trans retinoic acid (ATRA) (acute myeloid leukemia): enhances differentiation and promotes cytotoxic response | number of proteins decreasing in cytosolic fraction (P31/Fuj cells; [2]): 379 | number of proteins increased in cytosolic fraction (P31/Fuj cells; [2]): 101 | number of proteins decreasing in nuclear/organelle fraction (P31/Fuj cells; [3]): 334 | number of proteins increased in nuclear/organelle fraction (P31/Fuj cells; [3]): 293 | expression of MAPK pathway enzymes including NRAS, KRAS, MEK1 and P90-S6K (RPS6KA1 isoform) (P31/Fuj cells; LSD1i 5 days (FIG. 7B, 22A)): increase | expression of PI3K p110δ catalytic isoform, AKT2, and RAC1 (P31/Fuj cells; LSD1i 5 days (FIG. 7B, 22A)): decrease | proteins involved in the PI3K, insulin and c-MYC signaling pathways (P31/Fuj cells; [4]): decrease | α and β-integrin signaling proteins (P31/Fuj cells; [4]): increase | number of primary AML cases primed for MEKi treatment (primary AML cells; LSD1i 5 days then MEKi 3 days, of the 17 primary AML cases (FIG. 2H)): 8 | number of primary AML cases primed for PKC/FLT3i treatment (primary AML cells; LSD1i 5 days then PKC/FLT3i (midostaurin) 3 days, out of the 14 tested (FIG. 2I)): 5 | proportion of AML cases in which LSD1i->MEKi sequential treatment may be particularly effective (primary AML cells; LSD1i->MEKi sequential treatment, primary AML): about 50%
